Assays:
DIV7 neurons [1] = assay: IPC with fructose pathway inhibitor sorbinil: ATP and NADPH level of DIV7 neurons; type: cell-based, mice; conditions: fructose pathway inhibited by sorbinil, cellular level
Experimental: Secondly, to further verify effects of the fructose pathway in IPC ischemia protection, a fructose pathway inhibitor sorbinil was added at the cellular level. […] (4) Content of ATP and NADPH: cortical neurons were isolated from P0-P1 suckling mice, the neurons were inoculated on a 7th day by adding a lentiviral transfection protein vector that specifically detects ATP and a lentiviral transfection protein vector iNap that specifically detects NADPH; the neurons were fixated with 4% PFA, subjected to immunofluorescence staining, and data was collected through a confocal microscope, the fluorescence intensity of virus vector protein was counted using ImageJ, and the contents of ATP and NADPH were calculated.

OGD-injured neurons [2] = assay: Survival of OGD-injured neurons (TUNEL and MAP2 staining), fructose at different stages; type: cell-based; conditions: 24 h reperfusion
Experimental: (1) Cell model: the cerebral ischemic stroke was simulated using an OGD model, DIV7 primary neurons were treated with a glucose-free medium in a hypoxic box (1% O2+5% CO2+94% N2), oxygen glucose deprivation was conducted at 37° C. for 1.5 h, and the primary neurons was cultured in a normal medium for 24 h under normoxic conditions. (3) Survival of neurons: a survival state of neurons was counted by TUNEL staining and immunofluorescence staining; the neuronal cells were subjected to growing on glass coverslips, fixated with 4% PFA for 10 min, washed with PBS, and subjected to incubation in a blocking buffer for 1 h, and a MAP2 primary antibody working solution was added to conduct culture overnight at 4° C.; the cells were washed with PBS, a MAP2 secondary antibody working solution was added to incubate at room temperature for 1 h; the cells were washed with PBS, subjected to TUNEL staining, and a mounting agent containing 4′,6-diamidino-2-phenylindole (DAPI) was added for mounting. Data was collected through a focusing microscope and the number of cell deaths was counted using ImageJ. (1) Neuron survival: DIV7 neurons were divided into four groups: a control group, an OGD group (for OGD treatment), an OGD+Fru(per) group (fructose treatment during OGD treatment), and an OGD+Fru(post) group (fructose treatment in a reperfusion stage after OGD treatment). […]

OGD-injured neurons [3] = assay: ATP and NADPH content of OGD-injured neurons (lentiviral sensors), fructose at different stages; type: cell-based, mice
Description: (4) Content of ATP and NADPH: cortical neurons were isolated from P0-P1 suckling mice, the neurons were inoculated on a 7th day by adding a lentiviral transfection protein vector that specifically detects ATP and a lentiviral transfection protein vector iNap that specifically detects NADPH; the neurons were fixated with 4% PFA, subjected to immunofluorescence staining, and data was collected through a confocal microscope, the fluorescence intensity of virus vector protein was counted using ImageJ, and the contents of ATP and NADPH were calculated. By detecting an expression level of the lentiviral transfection protein vector that specifically detects ATP and the lentiviral transfection protein vector iNap that specifically detects NADPH in the primary neuron culture system, the levels are characterized for neuronal energy metabolism and redox metabolism. (2) Content of ATP and NADPH: cortical neurons were isolated from P0-P1 suckling mice, the neurons were inoculated on a 7th day by adding a lentiviral transfection protein vector that specifically detects ATP and a lentiviral transfection protein vector iNap that specifically detects NADPH; the neurons were divided into four groups: a control group, an OGD group (for OGD treatment), an OGD+Fru(per) group (fructose treatment during OGD treatment), and an OGD+Fru(post) group (fructose treatment in a reperfusion stage after OGD treatment). Reperfusion was conducted 24 h after OGD; the neurons were fixated with 4% PFA, subjected to MAP2 immunofluorescence staining to observe the content of ATP and NADPH of the neurons.

MCAO rats = assay: MCAO rat model: Longa behavioral score and TTC cerebral infarct area; type: in vivo; conditions: for area of cerebral infarction (TTC staining) / neurobehavioral characteristics (Longa scoring): 24 h
DIV7 neurons [4] = assay: CellTiter-Glo Luminescent cell viability of DIV7 neurons; type: cell-based; conditions: for viability of DIV7 neurons: 0, 1, 2, 4, 6, 8 and 16 mM, each compared with the 0 mM group, FIG. 12
Description: Effects of different concentrations of fructose on the viability of DIV7 neurons were studied using a CellTiter-Glo® Luminescent cell viability test kit, and an added concentration of the fructose was explored in the cell system.

OGD-injured neurons [5] = assay: CellTiter-Glo Luminescent cell viability of OGD-injured neurons; conditions: OGD 1.5 h, 2 mM, after 24 h, FIG. 13
Experimental: The CellTiter-Glo® Luminescent cell viability test kit was used: the neuronal cells were cultured using a 96-well plate, and OGD treatment was conducted on neurons for 1.5 h on a 7th day; fructose, fructose-1,6-bisphosphate and glycerol fructose were added each at a concentration of 2 mM; after 24 h, the cell viability was detected by the kit.

OGD-injured neurons [6] = assay: Survival rate of OGD-treated neurons by MAP2 and DAPI immunofluorescence staining; conditions: OGD 1.5 h, 2 mM, after 24 h, FIG. 14
Experimental: Immunofluorescence staining method: the neurons were cultured for 7 d, and subjected to OGD treatment for 1.5 h; fructose, fructose-1,6-bisphosphate and glycerol fructose were added each at a concentration of 2 mM; after 24 h, MAP2 and DAPI staining were conducted.

[7] = fructose added in the OGD phase
[8] = fructose added in the reperfusion phase
[9] = intraperitoneal injection after suture plug removal (MCAO+Fru-2)
[10] = tail vein injection after suture plug removal (MCAO+Fru-1)

SMILES	content of ATP after IPC (DIV7 neurons [1]; FIGS. 4A-B)	content of NADPH after IPC (DIV7 neurons [1]; FIGS. 5A-B)	neuronal death rate caused by OGD (OGD-injured neurons [2]; fructose added in the OGD phase (OGD+Fru(per)))	neuronal death rate caused by OGD (OGD-injured neurons [2]; fructose added in the reperfusion phase (OGD+Fru(post)))	ATP production of neurons (OGD-injured neurons [3]; [7])	NADPH production of neurons (OGD-injured neurons [3]; [7])	ATP production of neurons (OGD-injured neurons [3]; [8])	NADPH production of neurons (OGD-injured neurons [3]; [8])	comparison of routes of administration (tail vein vs intraperitoneal) (MCAO rats; MCAO rats, neurobehavior and infarct area)	area of cerebral infarction (TTC staining) (MCAO rats; [9])	neurobehavioral characteristics (Longa scoring) (MCAO rats; [9])	area of cerebral infarction (TTC staining) (MCAO rats; [10])	neurobehavioral characteristics (Longa scoring) (MCAO rats; [10])	viability of DIV7 neurons (DIV7 neurons [4])	concentration with better effect of improving the activity of DIV7 neuronal cells (DIV7 neurons [4]; different concentrations of fructose, FIG. 11)	cell viability of OGD-injured neurons (OGD-injured neurons [5])	survival rate of neurons after OGD (OGD-injured neurons [6])
O=C1NC(=O)[C@@]2(CCOc3ccc(F)cc32)N1 [sorbinil]	the IPC no longer increases the contents of ATP and NADPH	the IPC no longer increases the contents of ATP and NADPH	–	–	–	–	–	–	–	–	–	–	–	–	–	–	–
O=C(CO)[C@@H](O)[C@H](O)[C@H](O)CO [fructose]	–	–	can reduce the neuronal death rate caused by OGD	can reduce the neuronal death rate caused by OGD	can enhance the decrease in ATP and NADPH production of neurons caused by OGD	can enhance the decrease in ATP and NADPH production of neurons caused by OGD	can enhance the decrease in ATP and NADPH production of neurons caused by OGD	can enhance the decrease in ATP and NADPH production of neurons caused by OGD	tail vein injection is generally better than the intraperitoneal injection	reduce the area of cerebral infarction	can improve the neurobehavioral characteristics of MCAO rats	reduce the area of cerebral infarction	can improve the neurobehavioral characteristics of MCAO rats	can significantly enhance viability of the neurons	1 to 6 mM	can significantly increase the cell viability of OGD-injured neurons	–
O=C(COP(=O)(O)O)[C@@H](O)[C@H](O)[C@H](O)COP(=O)(O)O [reference compound]	–	–	–	–	–	–	–	–	–	–	–	–	–	can improve neuron viability	–	have a tendency to increase the viability of OGD-injured neurons	can improve the survival rate of the neurons

— US11911477B2, “Use of fructose in preparing drug for treating ischemic injury” (Beihang University, priority 2021, dated 2024)
